Reference: patent US7229990B2, “Bicyclic heteroaromatic compounds” (N.V. Organon, priority 2000, dated 2007)

These compounds were tested against T1, human LH receptor (Homo sapiens, UniProt P22888) (assay: CHO-LH in vitro bioactivity (CRE-luciferase reporter, LH agonistic activity)). Settings: not given.
T1 construct: expressed in transfected cells; host or cells: Chinese Hamster Ovary (CHO) cells, stably transfected; cotransfected with a CRE-luciferase reporter
Type: cell-based
Protocol: LH agonistic activity of compounds was tested in Chinese Hamster Ovary (CHO) cells stably transfected with the human LH receptor and cotransfected with a cAMP responsive, element (CRE)/promotor directing the expression of a firefly luciferase reporter gene. Binding of ligand to the Gs-coupled LH receptor will result in an increase of cAMP, which in turn will induce an increased transactivation of the luciferase reporter construct. The luciferase signal was quantified using a luminescence counter. For test compounds, EC50 values (concentration of test compound causing half-maximal (50%) stimulation) were calculated. For that purpose the software program GraphPad PRISM, version 3.0 (GraphPad software Inc., San Diego) was used.

T1 sequence (P22888 27-699): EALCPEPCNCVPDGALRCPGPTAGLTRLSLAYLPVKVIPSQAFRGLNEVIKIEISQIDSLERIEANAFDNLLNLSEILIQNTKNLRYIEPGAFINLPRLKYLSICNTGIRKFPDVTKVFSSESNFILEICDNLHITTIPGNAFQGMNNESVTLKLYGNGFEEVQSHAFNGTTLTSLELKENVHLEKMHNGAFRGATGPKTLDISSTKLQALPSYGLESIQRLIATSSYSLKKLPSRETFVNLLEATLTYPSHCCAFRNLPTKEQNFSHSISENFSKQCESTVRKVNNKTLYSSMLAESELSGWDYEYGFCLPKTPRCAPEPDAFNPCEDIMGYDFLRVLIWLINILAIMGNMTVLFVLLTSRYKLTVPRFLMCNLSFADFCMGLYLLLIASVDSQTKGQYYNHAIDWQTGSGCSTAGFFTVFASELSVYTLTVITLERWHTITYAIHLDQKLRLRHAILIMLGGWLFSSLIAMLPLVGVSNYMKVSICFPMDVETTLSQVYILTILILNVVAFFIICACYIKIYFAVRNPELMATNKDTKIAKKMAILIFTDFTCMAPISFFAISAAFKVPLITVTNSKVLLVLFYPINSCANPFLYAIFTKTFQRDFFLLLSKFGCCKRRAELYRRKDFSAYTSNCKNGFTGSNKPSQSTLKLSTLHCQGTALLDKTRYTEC

Compound	EC50
CCN(CC)C(=O)Oc1cccc(-c2nc(SC)nc3sc(C(=O)NC(C)(C)C)c(N)c23)c1 [Example 7]	< 10 nM

Same assay, conditions: CHO cells stably transfected with the human LH receptor and cotransfected with CRE/promotor firefly luciferase reporter; luciferase signal; read-out: EC50 value (concentration of test compound causing half-maximal (50%) stimulation)

Compound	EC50
C=CCOC(=O)Nc1cccc(-c2nc(SC)nc3sc(C(=O)NC(C)(C)C)c(N)c23)c1 [Example 16, tert-Butyl 5-amino-2-methylthio-4-(3-(allyloxycarbonylamino)-phenyl)-thieno[2,3-d]pyrimidine-6-carboxamide]	< 10 nM
CCOC(=O)Nc1cccc(-c2nc(SC)nc3sc(C(=O)NC(C)(C)C)c(N)c23)c1 [Example 18, tert-Butyl 5-amino-2-methylthio-4-(3-(ethoxycarbonylamino)-phenyl)-thieno[2,3-d]pyrimidine-6-carboxamide]	< 10 nM
CN(C)C(=O)Nc1cccc(-c2nc(-c3ccccc3)nc3sc(C(=O)NC(C)(C)C)c(N)c23)c1 [Example 32, tert-Butyl 5-amino-2-phenyl-4-(3-((N,N-dimethylamino)-carbonylamino)-phenyl)-thieno[2,3-d]pyrimidine-6-carboxamide]	< 10 nM

More lines, now with the values ahead:

EC50	Compound
< 10 nM	COC(=O)Nc1cccc(-c2nc(SC)nc3sc(C(=O)NC(C)(C)C)c(N)c23)c1 [Example 15, tert-Butyl 5-amino-2-methylthio-4-(3-(methoxycarbonylamino)-phenyl)-thieno[2,3-]pyrimidine-6-carboxamide]
< 10 nM	CSc1nc(-c2cccc(NC(=O)N3CCOCC3)c2)c2c(N)c(C(=O)NC(C)(C)C)sc2n1 [Example 21]
< 10 nM	CSc1nc(-c2cccc(NC(=O)N3CC=CCC3)c2)c2c(N)c(C(=O)NC(C)(C)C)sc2n1 [Example 23, tert-Butyl 5-amino-2-methylthio-4-(3-(1,2,3,6-tetrahydropyridinocarbonylamino)-phenyl)-thieno[2,3-d]pyrimidine-6-carboxamide]
